Results on six compounds are retold here after ChEMBL document CHEMBL3600292, “Anti-HIV screening for cell-penetrating peptides using chloroquine and identification of anti-HIV peptides derived from matrix proteins” (Bioorg Med Chem, 2015).

Starred links: 1 amine or outer side, 2 acyl side, 3 side chain; linkers in the order of their positions; H or OH if unused. Positions of bridges follow the written chain, without caps; N, C: chain ends. Non-standard residues stand in square brackets, D forms with d. Residues, ends and D or L forms follow the SMILES beside them. Chains are numbered I, II in the order given. *: point of attachment. Orn = NCCC[C@H](N)C(=O)O; X1 = O=C(C[*:1])[*:2]; Cam = NC(=O)C*

A word on the CC50: it is the concentration giving 50% cytotoxicity. The term EC50 denotes the concentration giving half of the maximal effect.

Data set [1] in a line: Cytotoxicity against human MT4 cells by MTT assay in presence of 5 uM of chloroquine. Format: cell-based. (In general: Tetrazolium dyes change colour on reduction, which living cells bring about.)
Data set [2] in a line: Cytotoxicity against human MT4 cells by MTT assay in presence of 2.5 uM of chloroquine. Format: cell-based.
Data set [3] concerns Human immunodeficiency virus 1. Nature of the data set: Antiviral activity against T-cell line-tropic HIV1 NL4-3 infected in human MT4 cells assessed as inhibition of virus-induced cytopathogenicity after 5 days by MTT assay in presence of 2.5 uM of chloroquine. Format: functional, organism-based. The note with it: Human immunodeficiency virus 1, NL4-3, MT4, 120 h. A general note: Damage to the host cells serves as the signal in cytopathic effect assays.

Data set [4] deals with Human immunodeficiency virus 1. Nature of the data set: Antiviral activity against T-cell line-tropic HIV1 NL4-3 infected in human MT4 cells assessed as inhibition of virus-induced cytopathogenicity after 5 days by MTT assay in presence of 10 uM of chloroquine. Particulars: Human immunodeficiency virus 1, NL4-3, MT4, 120 h. Format: functional, organism-based.
Data set [5] relates to Human immunodeficiency virus 1. Nature of the data set: Antiviral activity against macrophage-tropic HIV1 NL(AD8) infected in human PM1 expressing CCR5 cells assessed as inhibition of virus-induced cytopathogenicity after 5 days by MTT assay in presence of 5 uM of chloroquine. Format: functional, organism-based. The note with it: Human immunodeficiency virus 1, NL(AD8), PM1/CCR5, 120 h.

A short description of data set [6]: Cytotoxicity against human MT4 cells by MTT assay in presence of 10 uM of chloroquine. Format: cell-based.
A short description of data set [7]: Cytotoxicity against human PM1 cells expressing CCR5 by MTT assay in presence of 5 uM of chloroquine. Format: cell-based.
For data set [8], the system named is Human immunodeficiency virus 1. Nature of the data set: Antiviral activity against T-cell line-tropic HIV1 NL4-3 infected in human MT4 cells assessed as inhibition of virus-induced cytopathogenicity after 5 days by MTT assay in presence of 5 uM of chloroquine. Format: functional, organism-based. The note with it: Human immunodeficiency virus 1, NL4-3, MT4, 120 h.

Data set [9] can be described thus: Cytotoxicity against human MT4 cells by MTT assay. Format: cell-based.
Data set [10] has as its system Human immunodeficiency virus 1. Nature of the data set: Antiviral activity against T-cell line-tropic HIV1 NL4-3 infected in human MT4 cells assessed as inhibition of virus-induced cytopathogenicity after 5 days by MTT assay. Particulars: Human immunodeficiency virus 1, NL4-3, MT4, 120 h. Format: functional, organism-based.

As to `CC[C@H](C)[C@H](NC(=O)[C@H](CCCNC(=N)N)NC(=O)[C@H](CCC(N)=O)NC(=O)[C@H](Cc1cnc[nH]1)NC(=O)[C@@H](NC(=O)[C@H](CO)NC(=O)[C@H](Cc1ccc(O)cc1)NC(=O)[C@H](CC(C)C)NC(=O)[C@@H](NC(=O)[C@H](C)NC(=O)[C@@H](NC(=O)[C@@H](NC(C)=O)[C@@H](C)O)[C@@H](C)CC)C(C)C)C(C)C)C(=O)N[C@@H](CC(=O)O)C(=O)N[C@H](C(=O)N[C@@H](CCCCN)C(=O)NCC(=O)N[C@@H](CSCC(N)=O)C(N)=O)C(C)C` (Ac-TIAVLYSVHQRIDVKGC(Cam)-NH2), the half-maximal cytotoxic concentration (CC50) was 47 µM in data set [1]; > 50 µM in data set [2]; > 50 µM in data set [6]; > 50 µM in data set [7]; > 50 µM in data set [9]. For the same compound, the EC50 is > 50 µM in data set [3]; 0.65 µM in data set [4]; > 50 µM in [5]; 22 µM in [8]; > 50 µM in data set [10].
For the compound `CC[C@H](C)[C@H](NC(=O)[C@H](CCCNC(=N)N)NC(=O)[C@H](CCC(N)=O)NC(=O)[C@H](Cc1c[nH]cn1)NC(=O)[C@@H](NC(=O)[C@H](CO)NC(=O)[C@H](Cc1ccc(O)cc1)NC(=O)[C@H](CC(C)C)NC(=O)[C@@H](NC(=O)[C@H](C)NC(=O)[C@@H](NC(=O)[C@@H](NC(C)=O)[C@@H](C)O)[C@@H](C)CC)C(C)C)C(C)C)C(=O)N[C@@H](CC(=O)O)C(=O)N[C@H](C(=O)N[C@@H](CCCCN)C(=O)NCC(=O)N[C@@H](CSCC(=O)N[C@@H](CCCNC(=N)N)C(=O)N[C@@H](CCCN)C(=O)N[C@@H](CCCNC(=N)N)C(=O)N[C@@H](CCCN)C(=O)N[C@@H](CCCNC(=N)N)C(=O)N[C@@H](CCCN)C(=O)N[C@@H](CCCNC(=N)N)C(=O)N[C@@H](CCCN)C(N)=O)C(N)=O)C(C)C` (I: Ac-TIAVLYSVHQRIDVKGC-NH2 / II: R[Orn]R[Orn]R[Orn]R[Orn]-NH2; linker I:17-II:N via X1), the CC50 amounted to 11 µM in [1]; 6.1 µM in [2]; 9.1 µM in data set [6]; 7.2 µM in data set [7]; 10 µM in data set [9]. Further, the EC50 was determined as 1.6 µM in data set [3]; 0.2 µM in [4]; 1.1 µM in [5]; 0.62 µM in data set [8]; 6.3 µM in data set [10].
For the compound `CC[C@H](C)[C@H](NC(=O)[C@H](CCCNC(=N)N)NC(=O)[C@H](CCC(N)=O)NC(=O)[C@H](Cc1c[nH]cn1)NC(=O)[C@@H](NC(=O)[C@H](CO)NC(=O)[C@H](Cc1ccc(O)cc1)NC(=O)[C@H](CC(C)C)NC(=O)[C@@H](NC(=O)[C@H](C)NC(=O)[C@@H](NC(=O)[C@@H](NC(=O)[C@H](CC(N)=O)NC(=O)[C@H](Cc1ccc(O)cc1)NC(C)=O)[C@@H](C)O)[C@@H](C)CC)C(C)C)C(C)C)C(=O)N[C@@H](CC(=O)O)C(=O)NCC(=O)N[C@@H](CSCC(=O)N[C@@H](CCCNC(=N)N)C(=O)N[C@@H](CCCN)C(=O)N[C@@H](CCCNC(=N)N)C(=O)N[C@@H](CCCN)C(=O)N[C@@H](CCCNC(=N)N)C(=O)N[C@@H](CCCN)C(=O)N[C@@H](CCCNC(=N)N)C(=O)N[C@@H](CCCN)C(N)=O)C(N)=O` (I: Ac-YNTIAVLYSVHQRIDGC-NH2 / II: R[Orn]R[Orn]R[Orn]R[Orn]-NH2; linker I:17-II:N via X1), the figures for the 50% cytotoxic concentration (CC50) in data set [1], in data set [7] and in [9] were 7.7 µM, 7.6 µM and 7 µM, respectively. The EC50 in [5] is 1.4 µM; in data set [8] it was 1.7 µM; in data set [10], > 7 µM.
For the compound `c1cc(CN2CCCNCCNCCCNCC2)ccc1CN1CCCNCCNCCCNCC1` [PLERIXAFOR], the CC50 in data set [1], in [2], in data set [6], in data set [7] and in data set [9] was > 50 µM in each case. Also, the concentration for a half-maximal effect (EC50) in data set [3] is 0.039 µM; in data set [5] it was > 50 µM; in data set [8] it was 0.025 µM; in data set [10] it was 0.032 µM.
Turning to `COC[C@@H](c1ccc(C(F)(F)F)cc1)N1CCN(C2(C)CCN(C(=O)c3c(C)ncnc3C)CC2)C[C@@H]1C` [VICRIVIROC], the CC50 in [1], in data set [7] and in data set [9] was > 5 µM in each case. In addition, the EC50 in [5] is 0.0049 µM; in [8] it was > 5 µM; in data set [10], > 5 µM.
With `Cc1cn([C@H]2C[C@H](N=[N+]=[N-])[C@@H](CO)O2)c(=O)[nH]c1=O` [ZIDOVUDINE], the CC50 in data set [1] was > 100 µM; in data set [2], 27 µM; in data set [6], 31 µM; in [7] it was > 100 µM; in data set [9], > 100 µM. The EC50 in [3] amounted to 0.015 µM; in data set [5] it was 0.51 µM; in data set [8], 0.013 µM; in data set [10], 0.12 µM.
